Measured values taken from US20220183287A1, “METHODS FOR KILLING PESTS” (The United States of America, as represented by the …, priority 2020, published 2022).
“And” between values parts separate entries of the source, which are not always exact repeats. Identical values can stand only once. Marks after values point to notes of the source that are not given here.

Tests used:
[1] = test system: M. incognita second-stage juveniles; assay: Microwell assay: previously hatched J2 immersed in compounds, activity and viability; conditions: for % Active Day 1 / % Active Day 2: 0.1%, previously hatched J2 in aqueous solution; for viability at 0.1 % / mortality at 0.1 %: Meloidogyne incognita, 72 h; for viability at 0.1 %: read-out: % Viable Day 3 rinsed; for nonviable (killed) J2: in vivo; for mortality at 0.1 %: read-out: nonviable (killed) J2
Description: Nematode cultures: As described in Meyer et al. (Meyer, S. L. F., et al., Nematropica, 46: 85-96 (2016)), M. incognita race 1 (originally isolated in Maryland) was maintained in a greenhouse (24° to 29° C.; natural and supplemental lighting combined for a 16-h daylength) on susceptible cayenne pepper (Capsicum annuum) TA-136′ plants. All greenhouse experiments described herein were conducted under the same conditions. Two to three months after pepper plant inoculation, egg masses were picked from roots. Eggs were separated by 5 min immersion in 0.6% sodium hypochlorite, followed by a rinse in sterile distilled water (SDW). To collect second-stage juveniles (J2) for microwell assays, the surface-sterilized eggs were placed in a hatching chamber (Spectra/Mesh Nylon Filter, openings 25-μm-diam.; Spectrum Laboratories Inc., Rancho Dominguez, Calif.) set in an autoclaved dish that was placed on a rotary shaker for 3 days at 35 rpm. For some M. incognita and H. glycines assays, 25 or […] kanamycin monosulfate (Phytotechnology Laboratories, Shawnee Mission, Kans.) was added to the hatching chamber to prevent growth of bacteria. The collected J2 were then rinsed with water to remove the kanamycin monosulfate.
(§1) Compounds for the studies were purchased from three different companies: methyl benzoate, CAS Number 93-58-3, ≥99% purity; Tween 20, CAS Number: 9005-64-5; Tween 80, CAS Number: 9005-65-6; ethyl benzoate, CAS Number: 93-89-0, natural, ≥99% purity, FCC, FG; vinyl benzoate, CAS Number: 769-78-8, ≥99% purity; n-propyl benzoate, CAS Number: 2315-68-6, 99% purity; n-butyl benzoate, CAS Number: 136-60-7, 99% purity; benzyl benzoate, CAS Number: 120-51-4, natural, ≥99% purity, FCC, FG; methyl 2-methylbenzoate, CAS Number: 89-71-4, 99% purity; methyl 2-chlorobenzoate, CAS Number: 610-96-8, ≥98% purity; methyl 2-methoxybenzoate, CAS Number: 606-45-1, 99% purity and methyl 2-nitrobenzoate, CAS Number: 606-27-9, 98% purity were purchased from Sigma-Aldrich (St. Louis, Mo.). Compounds, iso-butyl benzoate, CAS Number 120-50-3, >98% purity; n-pentyl benzoate, CAS Number: 2049-96-9, ≥98% purity; and n-hexyl benzoate, CAS Number: 6789-88-4, ≥98% purity were purchased from Alfa Aesar (Tewksbury, Mass.). The compounds methyl 3-methoxybenzoate (methyl m-anisate), CAS Number: 5368-81-0; 97% and methyl 3-methylbenzoate (methyl m-toluate), CAS Number: 99-36-5, 97% purity were purchased from TCI America (Portland, Oreg.). All chemicals were used without further purification. Deionized water (DI) containing 1% emulsifier (v/v), Tween 20 and Tween 80, at 1:1 ratio was used to make different VOCs (volatile organic compounds) water solutions and also used as blank control.
(§2) For tests with individual compounds, the concentration of each compound was 0.1% before placement into wells; the final concentration in the wells was 0.095% after addition to eggs or J2 suspended in water. These are reported as 0.1% herein. An exception was Trial 2, M. incognita J2 activity and viability (Table 2): the final concentration was 0.1% after placement in wells. Low concentrations were selected for assays of combined compounds to determine if the combinations would increase nematotoxicity.
(§3) Laboratory assays were conducted in 96-well polystyrene plates following general procedures described in Wen et al. (2019). Each well received approximately 35 J2 (for previously hatched J2 assays) or 35 eggs that each contained either a first-stage juvenile (J1) or a J2. The plates were covered with plastic adhesive sealing film (Excel Scientific, Inc., Victorville Calif.) and then with the plate lids. Parafilm (Bemis, Neenah, Wis.) was used to seal the plates. The nematodes were then incubated at 26° C. […] Following the counts on Day 2, the treatments were removed and the J2 rinsed twice with SDW and incubated in the second rinse. […] Two trials were conducted for each assay.

Heterodera glycines eggs = assay: Microwell assay: eggs immersed in compounds, hatch and activity of hatched J2; format: in vivo; conditions: 0.1%; for % Active Day 2 / % Active Day 5 / % Active Day 7: J2 hatched from immersed eggs; for Hatch Day 2 / Hatch Day 5 / Hatch Day 7: hatched J2 per well, about 35 eggs per well; for pest or weed control at 0.1 %: Heterodera glycines, 168 h, read-out: egg hatch suppression compared with the Tween control
Description: (§4) All chemicals were used without further purification.
(§5) These are reported as 0.1% herein.
(§6) The nematodes were then incubated at 26° C. […] Two trials were conducted for each assay.
(§7) The assumptions of the model were checked.

[2] = test system: H. glycines second-stage juveniles; assay: Microwell assay: previously hatched J2 immersed in compounds, activity and viability; conditions: for % Active Day 1 / % Active Day 2: previously hatched J2 in aqueous solution; for viability at 0.1 %: Heterodera glycines, 72 h, read-out: % Viable Day 3 rinsed; for reduction in % viable J2 compared with the Tween control: Day 3 following water rinse
Description: The isolate of H. glycines race 3, originally isolated in Maryland, was maintained on soybean (Glycine max cv. ‘Essex’). As previously described (Wen, Y., et al. Plant Disease, 103: 2191-2198 (2019)), the roots were gently rubbed in water to dislodge cysts and mature females. The egg suspensions were then poured through nested sieves (#20 over /#60; pore sizes 850 μm and 250 μm diam., respectively) into a 454 g/liter sucrose solution. After 15 min, the cysts and females and cysts that floated to the top were collected, rinsed in water, and crushed with a rubber stopper on a #60 sieve (250-μm diam. pore size) that was partially submerged in distilled water. The egg suspension was washed through nested #230 over #500 sieves (pore sizes 63 μm and 25-μm diam., respectively). The eggs were collected in distilled water, and J2 hatched as described above.
as §1, §2, §3
Statistical analyses: The data were analyzed as either a general linear model using JMP or a generalized linear model for the best distribution to fit the residual using Proc Glimmix (Sas Institute). The assumptions of the model were checked. If not met, then appropriate statistical techniques were used so that data could met the assumptions of the models. In Sas, mean comparisons were done with Sidak adjusted p-values to hold the experiment-wise error at 0.05.

M. incognita eggs = assay: Microwell assay: eggs immersed in compounds, hatch and activity of hatched J2; format: in vivo, Meloidogyne incognita; conditions: 0.1%; for % Active Day 2 / % Active Day 5 / % Active Day 7: J2 hatched from immersed eggs; for Hatch Day 2 / Hatch Day 5 / Hatch Day 7: hatched J2 per well, about 35 eggs per well; for decrease in % active J2 compared with the Tween control: J2 hatched from eggs, 7-day incubation
Description: as §4, §5, §6, §7

| SMILES | % Active Day 1 [1] | % Active Day 2 [1] | viability at 0.1 % [1] | nonviable (killed) J2 [1] | % Active Day 2 (Heterodera glycines eggs) | % Active Day 5 (Heterodera glycines eggs) | % Active Day 7 (Heterodera glycines eggs) | Hatch Day 2 (Heterodera glycines eggs) | Hatch Day 5 (Heterodera glycines eggs) | Hatch Day 7 (Heterodera glycines eggs) | % Active Day 1 ([2]; 0.1%) | % Active Day 2 ([2]; 0.1%) | viability at 0.1 % [2] | % Active Day 2 (M. incognita eggs) | % Active Day 5 (M. incognita eggs) | % Active Day 7 (M. incognita eggs) | Hatch Day 2 (M. incognita eggs) | Hatch Day 5 (M. incognita eggs) | Hatch Day 7 (M. incognita eggs) | mortality at 0.1 % [1] | further results |
| --- | --- | --- | --- | --- | --- | --- | --- | --- | --- | --- | --- | --- | --- | --- | --- | --- | --- | --- | --- | --- | --- |
| CCCCOC(=O)c1ccccc1 [nBB, n-Butyl benzoate] | 14.8 ^cd % | 5.8 ^c % | 2.9% | killed most of the J2 | 3.6 ^d % | 9.2 ^de % | 8.8 ^bc % | 5.2 ^cd | 5.6 ^cd | 5.4 ^cd | 52.7 ^c % | 24.2 ^ef % | 26.3% | 17.1 ^b % | 0 ^e % | 0% and 0 ^c % | 3.3 ^cd | 4.1 ^cde | 4.6 ^de |  | pest or weed control at 0.1 % (Heterodera glycines eggs; Day 7): 64 to 80% |
| COC(=O)c1cccc(OC)c1 [M3MOB, Methyl 3-methoxybenzoate] | 0 ^f % | 0 ^d % | 0% |  | 0 ^e % | 0 ^f % | 6.9 ^bc % | 6.3 ^bcd | 6.4 ^bcd | 6.0 ^cd | 12.2 ^d % | 10.4 ^g % | 11.1% | 0 ^c % | 0 ^e % | 0 ^c % | 2.0 ^cd | 2.7 ^de | 2.8 ^de | 100% | pest or weed control at 0.1 % (Heterodera glycines eggs; Day 7): 64% |
| COC(=O)c1ccccc1OC [M2MOB, Methyl 2-methoxybenzoate] | 5.2 ^de % | 5.9 ^c % | 36.8% | killed more than half | 48.2 ^bc % | 43.0 ^abc % | 19.1 ^bc % | 8.7 ^abcd | 11.3 ^bc | 11.6 ^abc | 73.6 ^ab % | 66.3 ^ab % | 59.6% | 35.2 ^ab % | 32.5 ^cd % | 13.9 ^b % | 3.4 ^cd | 8.4 ^bc | 13.9 ^bc |  | % Viable Day 3 rinsed ([2]; 0.1%, after Day 2 water rinse): did not cause significant reductions; decrease in % active J2 compared with the Tween control (M. incognita eggs): 86% |
| CC(C)COC(=O)c1ccccc1 [iBB, iso-Butyl benzoate] | 54.8 ^ab % | 41.1 ^b % | 42.9% |  | 22.4 ^cd % | 18.4 ^cde % | 13.6 ^bc % | 6.7 ^bcd | 7.5 ^bcd | 7.3 ^bcd | 55.6 ^c % | 45.2 ^cd % | 34.5% | 61.2 ^ab % | 51.6 ^bc % | 38.0 ^b % | 6.4 ^abc | 7.2 ^bcd | 8.2 ^bcd | 52% | reduction in % viable J2 compared with the Tween control ([2]; 0.1%): 43%; decrease in % active J2 compared with the Tween control (M. incognita eggs): 60% |
| CCCOC(=O)c1ccccc1 [nPrB, n-Propyl benzoate] | 0 ^f % | 0 ^d % | 0% |  | 2.2 ^d % | 0 ^f % | 0 ^d % | 5.8 ^cd | 5.8 ^cd | 5.6 ^cd | 17.2 ^d % | 10.8 ^fg % | 12.1% | 0 ^c % | 0 ^e % | 0 ^c % | 3.5 ^cd | 4.0 ^cde | 4.1 ^de | 100% | hatch suppression compared to the Tween control (Heterodera glycines eggs; Day 2): 60%; inactive J2 that hatched from the eggs (Heterodera glycines eggs; by Day 7): 100%; pest or weed control at 0.1 % (Heterodera glycines eggs; Day 7): 64 to 80% |
| COC(=O)c1ccccc1[N+](=O)[O-] [M2NB, Methyl 2-nitrobenzoate] | 0 ^f % | 0 ^d % | 0% |  | 35.8 ^c % | 28.6 ^bcd % | 25.3 ^bc % | 9.1 ^abc | 10.2 ^bc | 10.0 ^bc | 54.2 ^c % | 34.1 ^de % | 30% | 29.5 ^b % | 15.2 ^d % | 18.7 ^b % | 5.0 ^bcd | 12.1 ^b | 19.5 ^b | 100% | % active J2 suppression compared with the Tween control (Heterodera glycines eggs; Day 7): 53%; reduction in % viable J2 compared with the Tween control ([2]; 0.1%): 51%; decrease in total hatch compared with the Tween control (M. incognita eggs; Day 7): about 58% |
| CCCCCOC(=O)c1ccccc1 [nPeB, n-Pentyl benzoate] | 29.9 ^bc % | 22.9 ^b % | 16.5% | killed most of the J2 | 4.2 ^d % | 4.3 ^e % | 4.2 ^c % | 7.6 ^bcd | 7.7 ^bcd | 7.5 ^bcd | 54.0 ^c % | 29.1 ^de % | 28.4% | 31.5 ^b % | 0 ^e % | 0% and 0 ^c % | 4.9 ^bcd |  | 6.6 ^cde |  |  |
